# Assays:
# Assay in all cases: relative viability (nuclei count vs DMSO), 5 days (fraction); higher = more cells survive
# [1] = compound: CCC1=CN=CN=C1N2CCN(CC2)CC3=NC4=C(N3)C=C(C=C4)C(F)(F)F + COc1cc2c(Oc3ccc(NC(=O)C4(C(=O)Nc5ccc(F)cc5)CC4)cc3F)ccnc2cc1OCCCN1CCOCC1 [Foretinib] (partner 0.25 µM)
# In short: (§1)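 Lung cancer cell lines were seeded in 1536-well plates and dosed by pin tool the next day, with either a single drug or a fixed anchor-drug dose combined with five library-drug doses (not always all listed) spaced in √10 steps. Five days later, one step fixed the cells and stained their nuclei (final 0.05% Triton X-100, 1% formaldehyde, 1 ug/ml Hoechst), and nuclei were counted on 4× images. Relative viability is the nuclei count in treated wells divided by the count in vehicle wells, and each value is the median of duplicate plates.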
# Mirin + Tozasertib = compound: N=C1NC(=O)/C(=C/c2ccc(O)cc2)S1 [Mirin] + Cc1cc(Nc2cc(N3CCN(C)CC3)nc(Sc3ccc(NC(=O)C4CC4)cc3)n2)n[nH]1 [Tozasertib] (partner 0.1 µM)
# In short: as §1
# [2] = compound: CCC1=CN=CN=C1N2CCN(CC2)CC3=NC4=C(N3)C=C(C=C4)C(F)(F)F + C[C@]1(O)C[C@@H](c2nc(-c3ccc4ccc(-c5ccccc5)nc4c3)c3c(N)nccn32)C1 [Linsitinib] (partner 1 µM)
# In short: as §1
# Mirin + Linsitinib = compound: N=C1NC(=O)/C(=C/c2ccc(O)cc2)S1 [Mirin] + C[C@]1(O)C[C@@H](c2nc(-c3ccc4ccc(-c5ccccc5)nc4c3)c3c(N)nccn32)C1 [Linsitinib] (partner 1 µM)
# In short: as §1
Cell Line,relative viability ([1]; first compound 0.04 µM),relative viability ([1]; first compound 0.1265 µM),relative viability ([1]; first compound 0.4 µM),relative viability ([1]; first compound 1.265 µM),relative viability ([1]; first compound 4 µM),relative viability (Mirin + Tozasertib; first compound 0.25 µM),relative viability (Mirin + Tozasertib; first compound 0.7906 µM),relative viability (Mirin + Tozasertib; first compound 2.5 µM),relative viability (Mirin + Tozasertib; first compound 7.906 µM),relative viability (Mirin + Tozasertib; first compound 25 µM),relative viability ([2]; first compound 0.04 µM),relative viability ([2]; first compound 0.1265 µM),relative viability ([2]; first compound 0.4 µM),relative viability ([2]; first compound 1.265 µM),relative viability ([2]; first compound 4 µM),relative viability (Mirin + Linsitinib; first compound 0.25 µM),relative viability (Mirin + Linsitinib; first compound 0.7906 µM),relative viability (Mirin + Linsitinib; first compound 2.5 µM),relative viability (Mirin + Linsitinib; first compound 7.906 µM),relative viability (Mirin + Linsitinib; first compound 25 µM)
201T,1.21,1.07,1.09,1.02,1.07,0.929,0.982,0.88,0.881,0.599,0.922,1.04,0.998,0.88,1.01,1,1.04,1.01,1.02,1.09
A549,0.851,0.903,0.937,0.816,0.905,–,–,–,–,–,0.596,0.549,0.629,0.28,0.615,0.508,0.58,0.544,0.503,0.511
A-427,1.03,1.11,1.03,0.959,0.534,0.196,–,0.202,0.143,0.158,1.12,1.11,1.03,1.05,0.857,1.11,–,1.19,1.19,1.2
ABC-1,1.32,1.05,1.12,1.24,0.886,0.167,0.235,0.197,0.223,0.193,0.873,0.777,0.676,0.631,0.831,0.771,0.93,0.773,1.04,0.455
BEN,0.368,0.522,0.527,0.343,0.374,0.438,0.584,0.523,0.553,0.456,0.868,0.82,0.802,0.531,0.477,0.821,1.37,0.973,0.809,0.502
CAL-12T,1.08,1.1,1.07,1.12,0.968,0.282,–,0.317,0.283,0.222,0.744,0.771,0.731,0.754,0.901,0.856,0.726,0.825,0.856,0.838
COR-L23,0.925,0.861,0.986,0.918,0.897,0.162,0.213,0.17,0.15,0.132,0.864,0.94,0.815,0.874,0.914,1.01,1.16,1.02,0.955,0.892
COR-L 105,1.25,0.941,1.04,0.941,1.16,0.341,0.384,0.343,0.401,0.309,0.953,0.925,0.873,0.839,0.977,0.984,1.02,1.13,1.09,0.846
Calu-6,0.91,0.841,0.889,0.807,0.782,–,–,–,–,–,0.883,0.851,0.871,0.819,1.02,0.914,0.908,0.903,0.856,0.88
ChaGo-K-1,1.02,0.992,0.794,0.814,0.891,0.234,0.222,0.241,0.215,0.171,–,–,–,–,–,–,–,–,–,–
EBC-1,0.107,0.0909,0.0948,0.0919,0.112,–,–,–,–,–,0.996,0.811,0.782,0.759,0.897,1.06,1.07,0.872,0.875,0.974
EKVX,0.748,0.675,0.753,–,0.779,0.397,0.323,0.368,0.322,0.345,1.01,0.897,0.954,0.769,0.905,1.11,0.959,1.03,0.933,1
EMC-BAC-2,1,0.943,1.03,–,0.914,0.274,0.28,0.284,0.228,0.162,0.816,0.771,0.808,0.728,0.791,0.793,0.825,0.883,0.853,0.815
EPLC-272H,0.787,0.787,0.688,0.653,0.639,0.267,–,0.262,0.127,0.15,1.07,0.96,1,1.43,1.33,1.1,–,1.16,0.978,0.831
H3255,0.828,0.872,0.894,0.739,0.776,0.677,0.639,0.698,0.555,0.602,0.937,0.956,0.904,0.825,0.772,0.9,0.886,0.972,0.954,0.97
HARA,0.85,0.952,0.836,–,0.828,0.126,–,0.107,0.0865,0.0791,0.915,0.832,0.919,0.733,0.831,0.935,0.994,0.988,1.02,0.738
HCC-15,1.02,1.01,1.03,1,1.01,0.336,0.344,0.359,0.202,0.177,0.945,0.801,0.815,0.812,0.846,0.791,0.849,0.897,0.779,0.534
HCC-44,–,–,–,–,–,1.06,0.433,0.93,0.824,0.404,0.652,0.648,0.666,0.643,0.634,0.64,0.789,0.703,0.711,0.501
